Consider three compounds from patent publication US12606572B2, “Substituted heterocycles and uses thereof” (Kumquat Biosciences Inc., priority 2023, dated 2026).

Usually IC50 stands for the midpoint of a concentration-inhibition curve.

Some results are limits rather than exact numbers.

The target of one experiment is T1, KRAS G12S (Homo sapiens, UniProt P01116, G12S).
T1 construct: made in house; host or cells: E. coli BL21 (DE3)
Nature of the experiment: HTRF assay, interaction of GST-tagged K-Ras with His-tagged hSOS1 (KRAS G12S). Format: biochemical. As to conditions: <500 nM, read-out: Inhibition of KRAS G12S (IC50). The method in brief: (§1)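 GST-K-Ras (G12S or WT) with anti-GST-Eu donor mixed with His-hSOS1 and anti-6His-XL665 acceptor in ~5 mM HEPES pH 7.4, 150 mM NaCl, 1 mM DTT, 0.05% BSA, 0.0025% Igepal. After ~10 min or longer, HTRF 665/620 nm ratio read.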
In general terms: TR-FRET usually uses a lanthanide donor and a delayed reading to cut background.

Another experiment concerns the target T2, KRAS WT (Homo sapiens, UniProt P01116).
T2 construct: made in house; host or cells: E. coli BL21 (DE3)
Nature of the experiment: HTRF assay, interaction of GST-tagged K-Ras with His-tagged hSOS1 (KRAS wildtype). As to conditions: <500 nM, read-out: Inhibition of KRAS WT (IC50). The class given is biochemical. The gist of the method: as §1

T2 sequence (P01116 1-188 isoform P01116-2): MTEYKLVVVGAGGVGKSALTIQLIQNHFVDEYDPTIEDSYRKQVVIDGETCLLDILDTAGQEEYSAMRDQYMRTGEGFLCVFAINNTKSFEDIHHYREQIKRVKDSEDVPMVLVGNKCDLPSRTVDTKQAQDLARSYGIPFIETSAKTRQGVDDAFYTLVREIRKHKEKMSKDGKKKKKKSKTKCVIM
T1 sequence (P01116 1-188 isoform P01116-2 G12S): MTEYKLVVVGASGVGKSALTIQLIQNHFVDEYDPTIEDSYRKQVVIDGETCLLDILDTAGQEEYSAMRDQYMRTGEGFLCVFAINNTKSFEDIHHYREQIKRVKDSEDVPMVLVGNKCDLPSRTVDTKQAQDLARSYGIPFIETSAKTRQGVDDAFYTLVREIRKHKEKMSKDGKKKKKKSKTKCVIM

For the compound `Cc1cn(C(=O)N2CC[C@@H](N3CCCCc4nc(-c5ccc(F)c6sc(N)c(C#N)c56)c(F)c5nc(OC[C@@]67CCCN6C[C@H](F)C7)nc3c45)[C@H]2C)c(C)n1` [Compound 454, 2-amino-4-(11-((2R,3R)-1-(2,4-dimethyl-1H-imidazole-1-carbonyl)-2-methylpyrrolidin-3-yl)-4-fluoro-2-(((2R,7aS)-2-fluorotetrahydro-1H-pyrrolizin-7a (5H)-yl)methoxy)-8,9,10,11-tetrahydro-7H-1,3,6,11-tetraazacycloocta[de]naphthalen-5-yl)-7-fluorobenzo[b]thiophene-3-carbonitrile], the concentration for half-maximal inhibition (IC50) at KRAS G12S and on KRAS WT was < 500 nM each time.

As for `C[C@H](O)[C@H]1COc2c(Cl)c(-c3ccc(F)c4sc(N)c(C#N)c34)c(F)c3nc(OC[C@@]45CCCN4C[C@H](F)C5)nc(c23)N1CC1CN(C(=O)n2ccnc2)C1` [Compound 427, 4-((5R)-4-((1-(1H-imidazole-1-carbonyl)azetidin-3-yl)methyl)-8-chloro-10-fluoro-2-(((2R,7aS)-2-fluorotetrahydro-1H-pyrrolizin-7a(5H)-yl)methoxy)-5-((S)-1-hydroxyethyl)-5,6-dihydro-4H-[1,4]oxazepino [5,6,7-de]quinazolin-9-yl)-2-amino-7-fluorobenzo[b] thiophene-3-carbonitrile], the half-maximal inhibitory concentration (IC50) on KRAS G12S and at KRAS WT was < 500 nM each time.

In the case of `CC1C(CN2c3nc(OC[C@@]45CCCN4C[C@H](F)C5)nc4c(F)c(-c5ccc(F)c6sc(N)c(C#N)c56)c(Cl)c(c34)OC[C@@H]2[C@H](C)O)CCN1C(=O)n1ccnc1` (stereo partly drawn) [Compound 457, 4-((5R)-4-((1-(1H-imidazole-1-carbonyl)-2-methylpyrrolidin-3-yl)methyl)-8-chloro-10-fluoro-2-(((2R,7aS)-2-fluorotetrahydro-1H-pyrrolizin-7a(5H)-yl)methoxy)-5-((S)-1-hydroxyethyl)-5,6-dihydro-4H-[1,4]oxazepino[5,6,7-de]quinazolin-9-yl)-2-amino-7-fluorobenzo[b]thiophene-3-carbonitrile], the IC50 at KRAS G12S and on KRAS WT was < 500 nM each time.
